Consider seven molecules from PMC8232644, “Self-Supporting Hydrogels Based on Fmoc-Derivatized Cationic Hexapeptides for Potential Biomedical Applications” (Biomedicines, 2021).

As usually defined, the thermodynamic solubility is solubility found after equilibrating the solid with the medium.

In brackets after ≈: the same amount, converted by molar mass. Residues, ends and D or L forms follow the SMILES beside them. *: point of attachment. Fmoc = O=C(OCC1c2ccccc2-c2ccccc21)*

The subject of series [1] is 3T3-L1 cells. Format: cell-based, mouse. The settings on record: 24 h. As for the experimental part: (§1) Aneuploid immortal keratinocyte cell line HaCat and mouse pre-adipocyte cell line 3T3-L1 were obtained from IRCCS-SDN Biobank (10.5334/ojb.26) and grown in Dulbecco’s Modified Medium (DMEM) supplemented with 10% fetal bovine serum (FBS) and 1% GlutaMAX. Cells were incubated at 37 °C and 5% CO2 and seeded in 100 mm culture dishes.
For the adhesion test, 3T3-L1 cells were seeded in 96-well plates at a density of 0.5 ×10^4 cells per well. Before seeding, each well was filled with the indicated hydrogels; 16 h after seeding, cells were stained with Acridine Orange/Propidium Iodide stain. Cell adhesion was reported as % of adherent viable cell (fluorescing green) on total plated cells. Viability upon adhesion was reported as % viable cells and total adherent cells. […] No color change of the media was detected following the incubation and the tested pH value (7.5–7.8) was suitable for culturing added to the wells. […] At the end of the treatment, cell viability was assessed by the MTS assay. […] After 30 min of incubation at 37 °C, the samples were analyzed using the VICTOR Nivo (Perkin Elmer, Buckinghamshire, UK) at 490 nm absorbance. Cell survival was expressed as percentage of viable cells in the presence of hydrogels, compared to control cells grown in their absence. […]

Series [2] in a line: Water solubility of peptides. Format: physicochemical. The note with it: from solid: 10 mg lyophilized peptide in 1.0 mL water, sonicated 30 min at room temperature, centrifuged 5 min 13,000 rpm; UV at 301 nm (ε 7800 M^−1 cm^−1). How it is done:
Peptide solutions were prepared by dissolving 10 mg of each lyophilized peptide in 1.0 mL of water. These suspensions were sonicated for 30 min at room temperature; after centrifugation (5 min at 13,000 rpm), the concentration was spectroscopically determined on UV–Vis Thermo Fisher Scientific Inc. (Wilmington, DE, USA) NanoDrop 2000 c spectrophotometer equipped with a 1.0 cm quartz cuvette (Hellma). The quantification of the concentration was assessed using the molar absorptivity (ε) of 7800 M^−1 cm^−1 for Fmoc group at λ = 301 nm.
Due to their different sequence, each peptide has a different water solubility (see Table 2). […] The capability of peptides to self-assemble was initially checked by fluorescence spectroscopy, recording the emission spectra at the maximum concentration of the peptide. Peptides containing the FF motif were excited at both 257 and 301 nm, which corresponded to the excitation wavelength of phenyl and the Fmoc group, respectively, whereas peptides lacking FF were excited only at 301 nm. All the peptide derivatives, upon excitation at 301 nm, have an emission peak at 328 nm, red-shifted of 15 nm, with respect to the peak at 313 nm, which is expected for the monomeric form (see Figure S6).

Series [3] in a line: In vitro hydrogel degradation in Ringer's solution. It is filed as physicochemical. The note with it: hydrogel with 1.5 mL Ringer’s solution at 37 °C for 20 days (method: 40 days); ΔW = (Wo − Wt)/Wo. As for the experimental part: In vitro hydrogel degradation assay was performed by adding a fixed amount (1.5 mL) of Ringer’s solution (12.9 mg of NaCl, 0.45 mg of KCl and 0.48 mg of CaCl2) to the preformed hydrogels and by placing them in an oven at 37 °C for 40 days. Hydrogels were weighed before the addition of the Ringer’s solution (Wo) and after its removal (Wt). The weight loss ratio (ΔW) was calculated as percentage according to Equation (2) ΔW = ((Wo − Wt))/Wo %(2)
As potential tissue engineering matrices, PHG materials would be directly exposed to biological fluids. According to this consideration, the degradation test was performed to evaluate the matrices stability in an in vivo mimetic environment. The biological setting was mimed, incubating the hydrogels with Ringer’s solution at 37 °C for 20 days. The stability, reported as ΔW, calculated using Equation (2), was estimated as weight loss. ΔW values determined for Fmoc-K1, Fmoc-K2, and Fmoc-K3 were 43.2, 39.7, and 41.8%, respectively. In comparison to other FmocFF peptide-based hydrogels, all tested samples undergo faster and more remarkable degradation. This behavior is probably ascribable to the less rigid nature of Fmoc-K HGs. As an alternative, it can also be hypothesized that the large amount of salt in the Ringer’s solution could improve the solubility of K peptides and, in turn, accelerate the loss of 3D-organization of the matrix. It is worth it to note that an efficient in vivo degradation by biological fluids of hydrogels in their single components could allow achieving a rapid excretion of the matrix, which means a high biocompatibility.

Series [4] deals with 3T3-L1 cells. Format: cell-based, mouse. The settings on record: for Cell adhesion (% of adherent viable cells on seeded cells): 16 h; for cell viability of adherent cells: 72 h. How it is done:
as §1
For the adhesion test, 3T3-L1 cells were seeded in 96-well plates at a density of 0.5 ×10^4 cells per well. Before seeding, each well was filled with the indicated hydrogels; 16 h after seeding, cells were stained with Acridine Orange/Propidium Iodide stain. Cell adhesion was reported as % of adherent viable cell (fluorescing green) on total plated cells. Viability upon adhesion was reported as % viable cells and total adherent cells. Duplication rate was reported as the ratio between viable cells upon 48 h from seeding and the number of viable adherent cells upon 16 h from seeding. In order to test the toxicity of hydrogels conditioned media, we used MTS assay, (CellTiter 96® AQueous One Solution Cell Proliferation Assay, Promega, Italy). For MTS assays, HaCat and 3T3-L1 cells were seeded in 96-well plates at a density of 0.7 × 10^4 cells per well. To obtain the conditioned media, hydrogels formed in a hollow plastic chamber sealed at one end with a porous membrane, were incubated with 2 mL of completed DMEM medium for 16 h in sterile condition at RT [23]. No color change of the media was detected following the incubation and the tested pH value (7.5–7.8) was suitable for culturing added to the wells. The conditioned media were used to grow the cells for 24, 48, and 72 h. At the end of the treatment, cell viability was assessed by the MTS assay. In brief, MTS was added to the cells at a final concentration of 0.5 mg/mL. After 30 min of incubation at 37 °C, the samples were analyzed using the VICTOR Nivo (Perkin Elmer, Buckinghamshire, UK) at 490 nm absorbance. Cell survival was expressed as percentage of viable cells in the presence of hydrogels, compared to control cells grown in their absence. MTS assay was repeated twice with similar results.
To test the ability of the three hydrogels to support in vitro growth of eukaryotic cells, we culture 3T3-L1 (mouse fibroblast) cells on Fmoc-K1, K2, and K3. As first, we measured the number of cells able to adhere to hydrogels. An efficient cell adhesion is necessary for an optimal growth of the culture, and growth-supports un-favoring cell adhesion cause cell cycle arrest and induce apoptosis. […] Compared to cells plated in the absence of hydrogels, Fmoc-K1 and Fmoc-K2 disfavored cell adhesion, allowing cell attachment to 20 ± 3%, 36 ± 8% of the seeded cells, respectively.

The conditions of series [5]: cited from earlier work. From the text:
Hydrogels are matrices able to absorb water and swell in the media without dissolving. The calculated degree of swelling (q) was 55.2%, 56.6%, and 54.3% for Fmoc-K1, Fmoc-K2, and Fmoc-K3, respectively.

Regarding `CC[C@H](C)[C@H](NC(=O)OCC1c2ccccc2-c2ccccc21)C(=O)N[C@@H](CC(C)C)C(=O)N[C@H](C(=O)N[C@@H](C)C(=O)NCC(=O)N[C@@H](CCCCN)C(N)=O)C(C)C` [Fmoc-K1] (Fmoc-ILVAGK-NH2), the “viability (cell survival vs control)” value with 3T3-L1 cells [1] is listed as “above 70%”. This molecule showed a solubility (thermodynamic) at 30 min in series [2] of 1240 µg/mL (≈ 1510 µM). Further, the “weight loss ratio ΔW (stability)” value in series [3] stood at 43.2%. Also, in the series on 3T3-L1 cells [4], the “cell death of the attached cells” value is on record as 9 ± 3%, the “Cell adhesion (% of adherent viable cells on seeded cells)” value is reported as 20 ± 3% and the “cell viability of adherent cells” value is 92 ± 3%.

The molecule `CC[C@H](C)[C@H](NC(=O)[C@H](CC(C)C)NC(=O)OCC1c2ccccc2-c2ccccc21)C(=O)N[C@H](C(=O)N[C@@H](C)C(=O)NCC(=O)N[C@@H](CCCCN)C(N)=O)C(C)C` [Fmoc-K2] (Fmoc-LIVAGK-NH2) gave a solubility (thermodynamic) at 30 min in series [2] of 2560 µg/mL (≈ 3120 µM). In series [3], the “weight loss ratio ΔW (stability)” value was 39.7%. Moreover, in the series with 3T3-L1 cells [4], the “cell death of the attached cells” value turned out to be 11 ± 2%, the “Cell adhesion (% of adherent viable cells on seeded cells)” value was 36 ± 8% and the “cell viability of adherent cells” value is 95 ± 3%.

In series [2], `CC[C@H](C)[C@H](NC(=O)[C@H](C)NC(=O)OCC1c2ccccc2-c2ccccc21)C(=O)N[C@H](C(=O)N[C@@H](C)C(=O)NCC(=O)N[C@@H](CCCCN)C(N)=O)C(C)C` [Fmoc-K3] (Fmoc-AIVAGK-NH2) gave a solubility (thermodynamic) at 30 min of 3210 µg/mL (≈ 4120 µM). For the same molecule, the “weight loss ratio ΔW (stability)” value in series [3] is recorded as 41.8%. In addition, in the series on 3T3-L1 cells [4], the “cell death of the attached cells” value is 3 ± 1%, the “Cell adhesion (% of adherent viable cells on seeded cells)” value was found to be 85 ± 12% and the “cell viability of adherent cells” value came out at 94 ± 3%.

`CC[C@H](C)[C@H](NC(=O)[C@H](Cc1ccccc1)NC(=O)[C@H](Cc1ccccc1)NC(=O)OCC1c2ccccc2-c2ccccc21)C(=O)N[C@@H](CC(C)C)C(=O)N[C@H](C(=O)N[C@@H](C)C(=O)NCC(=O)N[C@@H](CCCCN)C(N)=O)C(C)C` [FmocFF-K1] (Fmoc-FFILVAGK-NH2): the solubility (thermodynamic) at 30 min in series [2] was found to be 508 µg/mL (≈ 455 µM).

`CC[C@H](C)[C@H](NC(=O)[C@H](CC(C)C)NC(=O)[C@H](Cc1ccccc1)NC(=O)[C@H](Cc1ccccc1)NC(=O)OCC1c2ccccc2-c2ccccc21)C(=O)N[C@H](C(=O)N[C@@H](C)C(=O)NCC(=O)N[C@@H](CCCCN)C(N)=O)C(C)C` [FmocFF-K2] (Fmoc-FFLIVAGK-NH2): the solubility (thermodynamic) at 30 min in series [2] turned out to be 253 µg/mL (≈ 227 µM).

On to `CC[C@H](C)[C@H](NC(=O)[C@H](C)NC(=O)[C@H](Cc1ccccc1)NC(=O)[C@H](Cc1ccccc1)NC(=O)OCC1c2ccccc2-c2ccccc21)C(=O)N[C@H](C(=O)N[C@@H](C)C(=O)NCC(=O)N[C@@H](CCCCN)C(N)=O)C(C)C` [FmocFF-K3] (Fmoc-FFAIVAGK-NH2), for which, in series [2], the solubility (thermodynamic) at 30 min worked out at 345 µg/mL (≈ 321 µM).

As to Fmoc-diphenylalanine [FmocFF], the swelling degree result in series [5] is “around 40%”.
